The species named for data set [1] is Homo sapiens. Briefly: Liver toxicity in human assessed as induction of drug-induced liver injury by measuring severity class index.
For data set [2], the species on record is Homo sapiens. Briefly: Liver toxicity in human assessed as induction of drug-induced liver injury by measuring verified drug-induced liver injury concern status.

Positions of bridges follow the written chain, without caps; N, C: chain ends. Non-standard residues stand in square brackets, D forms with d. Residues, ends and D or L forms follow the SMILES beside them. pGlu = O=C1CC[C@@H](C(=O)O)N1
Wherever DILI severity class is given: key of the grades not given here.

Regarding `CC(C)CN(C[C@@H](O)[C@H](Cc1ccccc1)NC(=O)O[C@H]1CCOC1)S(=O)(=O)c1ccc(N)cc1`, the DILI_severity_class in data set [1] was determined as 3. In addition, the DILI_Concern entry in data set [2] was “Ambiguous-Dili-Concern”.
In the case of `COc1cc2c(cc1OC)[C@@H](Cc1cc(OC)c(OC)c(OC)c1)[N+](C)(CCCOC(=O)CC/C=C/CCC(=O)OCCC[N+]1(C)CCc3cc(OC)c(OC)cc3[C@H]1Cc1cc(OC)c(OC)c(OC)c1)CC2` (stereo partly drawn), in data set [1], the DILI_severity_class was found to be 0. In addition, the DILI_Concern entry in data set [2] was “No-Dili-Concern”.
For `CNS(=O)(=O)CCc1ccc2[nH]cc(C3CCN(C)CC3)c2c1` the same measures were 4 and “Ambiguous-Dili-Concern”.
As to `CNS(=O)(=O)Cc1ccc2[nH]cc(CCN(C)C)c2c1`, the DILI_severity_class in data set [1] was found to be 3. Moreover, in data set [2], the DILI_Concern entry is given as “Ambiguous-Dili-Concern”.
As to `C[C@@H](O)[C@H]1C(=O)N2C(C(=O)O)=C(S[C@@H]3CN[C@H](C(=O)Nc4cccc(C(=O)O)c4)C3)[C@H](C)[C@H]12`, in data set [1], the DILI_severity_class was 3. Moreover, the DILI_Concern result in data set [2] is on record as “Ambiguous-Dili-Concern”.
For `CC(=O)[C@@]1(O)CC[C@H]2[C@@H]3C[C@H](C)C4=CC(=O)CC[C@]4(C)[C@H]3CC[C@@]21C`, the DILI_severity_class in data set [1] was 2. Further, the DILI_Concern entry in data set [2] is recorded as “Ambiguous-Dili-Concern”.
As to `CN1CCC[C@@H]1Cc1c[nH]c2ccc(CCS(=O)(=O)c3ccccc3)cc12`, in data set [1], the DILI_severity_class worked out at 3. Besides, the DILI_Concern entry in data set [2] is reported as “Ambiguous-Dili-Concern”.
For the compound `CCCc1nc(C)c2c(=O)[nH]c(-c3cc(S(=O)(=O)N4CCN(CC)CC4)ccc3OCC)nn12`, the DILI_severity_class in data set [1] is 3. For the same compound, the DILI_Concern result in data set [2] is given as “Ambiguous-Dili-Concern”.
As to `FC(F)(F)C(F)(F)C(F)(F)F`, the DILI_severity_class in data set [1] is reported as 0. The DILI_Concern result in data set [2] is recorded as “No-Dili-Concern”.
For `CCCC[C@](C)(O)C/C=C/[C@H]1[C@H](O)CC(=O)[C@@H]1CCCCCCC(=O)OC` the same measures were 3 and “Ambiguous-Dili-Concern”.
As to `C=CC[N+]1([C@H]2C[C@H]3[C@@H]4CC[C@H]5C[C@H](O)C(N6CCOCC6)C[C@]5(C)[C@H]4CC[C@]3(C)[C@H]2OC(C)=O)CCCC1` (stereo partly drawn), the DILI_severity_class in data set [1] was 0. In addition, the DILI_Concern result in data set [2] is on record as “No-Dili-Concern”.
The corresponding values for `CC(=O)[C@@]1(O)CC[C@H]2[C@@H]3C=C(C)C4=CC(=O)CC[C@]4(C)[C@H]3CC[C@@]21C` are 1 and “Ambiguous-Dili-Concern”.
Take `O=S(=O)(O)O[C@@H]1[C@@H](OS(=O)(=O)O)[C@H](O[C@@H]2CO[C@@H](O)[C@H](OS(=O)(=O)O)[C@H]2OS(=O)(=O)O)OC[C@H]1O`: the DILI_severity_class in data set [1] is given as 3. Further, the DILI_Concern entry in data set [2] is recorded as “Ambiguous-Dili-Concern”.
The corresponding values for `CC1=C(CCC(=O)O)c2cc3[nH]c(cc4[nH]c(cc5nc(cc1n2)C(C)=C5C(C)OC(C)c1c(C)c2cc5nc(cc6nc(cc7[nH]c(cc1[nH]2)c(C)c7CCC(=O)O)C(CCC(=O)O)=C6C)C(C(C)O)=C5C)c(C)c4C(C)O)c(C)c3CCC(=O)O` (stereo not drawn) are 0 and “No-Dili-Concern”.
For `O=[N+]([O-])O[C@@H]1CO[C@H]2[C@@H]1OC[C@H]2O` the same measures were 3 and “Ambiguous-Dili-Concern”.
Turning to `C#C[C@@]1(OC(C)=O)CC[C@H]2[C@@H]3CCC4=CC(=O)CC[C@@H]4[C@H]3CC[C@@]21C`, the DILI_severity_class in data set [1] stood at 0. Moreover, in data set [2], the DILI_Concern entry is reported as “No-Dili-Concern”.
For `C=C1[C@H](CO)[C@@H](O)C[C@@H]1n1cnc2c(=O)[nH]c(N)nc21.O`, in data set [1], the DILI_severity_class is reported as 7. For the same compound, in data set [2], the DILI_Concern entry is “Ambiguous-Dili-Concern”.
For `CC(C)(C)NC(=O)[C@@H]1CN(Cc2cccnc2)CCN1C[C@@H](O)C[C@@H](Cc1ccccc1)C(=O)N[C@H]1c2ccccc2C[C@H]1O.O` the same measures were 8 and “Ambiguous-Dili-Concern”.
For `CN1CC(=O)N2[C@H](c3ccc4c(c3)OCO4)c3[nH]c4ccccc4c3C[C@@H]2C1=O` the same measures were 3 and “Ambiguous-Dili-Concern”.
For `CC[C@H](C)[C@@H]1NC(=O)[C@H](Cc2ccc(O)cc2)NC(=O)[C@@H](N)CSSC[C@@H](C(=O)N2CCC[C@H]2C(=O)N[C@@H](CC(C)C)C(=O)NCC(N)=O)NC(=O)[C@H](CC(N)=O)NC(=O)[C@H]([C@@H](C)O)NC1=O` (H-CYITNCPLG-NH2; disulfide 1-6) the same measures were 0 and “No-Dili-Concern”.
Consider `CCNC(=O)[C@@H]1CCCN1C(=O)[C@H](CCCNC(=N)N)NC(=O)[C@H](CC(C)C)NC(=O)[C@H](CC(C)C)NC(=O)[C@H](Cc1ccc(O)cc1)NC(=O)[C@H](CO)NC(=O)[C@H](Cc1c[nH]c2ccccc12)NC(=O)[C@H](Cc1c[nH]cn1)NC(=O)[C@@H]1CCC(=O)N1` ([pGlu]HWSYLLRP-NHEt), for which, in data set [1], the DILI_severity_class was found to be 3. The DILI_Concern result in data set [2] is on record as “Less-Dili-Concern”.
The corresponding values for `CC(C)=CCN1CC[C@]2(C)c3cc(O)ccc3C[C@H]1[C@H]2C` [(+)-PENTAZOCINE] are 0 and “No-Dili-Concern”.
Turning to `O[C@@H](c1cc(C(F)(F)F)nc2c(C(F)(F)F)cccc12)[C@H]1CCCCN1` [(S,R)-MEFLOQUINE], the DILI_severity_class in data set [1] stood at 7. The DILI_Concern result in data set [2] is reported as “Less-Dili-Concern”.
For `Nc1nc(NC2CC2)c2ncn([C@H]3C=C[C@@H](CO)C3)c2n1` [ABACAVIR] the same measures were 8 and “Most-Dili-Concern”.
As for `CC(=O)NCCCS(=O)(=O)O` [ACAMPROSATE], the DILI_severity_class in data set [1] worked out at 3. In addition, in data set [2], the DILI_Concern entry was “Less-Dili-Concern”.
For `C[C@H]1O[C@H](O[C@H]2[C@H](O)[C@@H](O)[C@@H](O[C@H]3[C@H](O)[C@@H](O)C(O)O[C@@H]3CO)O[C@@H]2CO)[C@H](O)[C@@H](O)[C@@H]1N[C@H]1C=C(CO)[C@@H](O)[C@H](O)[C@H]1O` (stereo partly drawn) [ACARBOSE] the same measures were 8 and “Most-Dili-Concern”.
The corresponding values for `CCCC(=O)Nc1ccc(OCC(O)CNC(C)C)c(C(C)=O)c1` (stereo not drawn) [ACEBUTOLOL] are 3 and “Less-Dili-Concern”.
As to `O=C(O)COC(=O)Cc1ccccc1Nc1c(Cl)cccc1Cl` [ACECLOFENAC], in data set [1], the DILI_severity_class was 0. For the same compound, the DILI_Concern entry in data set [2] is “Less-Dili-Concern”.
For `CC(=O)Nc1nnc(S(N)(=O)=O)s1` [ACETAZOLAMIDE] the same measures were 8 and “Most-Dili-Concern”.
For `CC(=O)NO` [ACETOHYDROXAMIC ACID] the same measures were 3 and “Ambiguous-Dili-Concern”.
The corresponding values for `CC(=O)OCC[N+](C)(C)C.[Cl-]` [ACETYLCHOLINE CHLORIDE] are 0 and “No-Dili-Concern”.
Regarding `CC(=O)N[C@@H](CS)C(=O)O` [ACETYLCYSTEINE], the DILI_severity_class in data set [1] is 0. Further, in data set [2], the DILI_Concern entry is given as “No-Dili-Concern”.
For `COc1cc(C)c(/C=C/C(C)=C/C=C/C(C)=C/C(=O)O)c(C)c1C` [ACITRETIN] the same measures were 5 and “Most-Dili-Concern”.
Regarding `Nc1nc2c(ncn2COCCO)c(=O)[nH]1` [ACYCLOVIR], the DILI_severity_class in data set [1] stood at 5. In data set [2], the DILI_Concern result is reported as “Less-Dili-Concern”.
The corresponding values for `Nc1ncnc2c1ncn2CCOCP(=O)(O)O` [ADEFOVIR] are 2 and “Less-Dili-Concern”.
For `Nc1ncnc2c1ncn2[C@@H]1O[C@H](CO)[C@@H](O)[C@H]1O` [ADENOSINE] the same measures were 0 and “No-Dili-Concern”.
Take `CC(N)C(=O)OC(C)(C)Cc1ccc(Cl)cc1` (stereo not drawn) [ALAPROCLATE]: the DILI_severity_class in data set [1] is given as 8. The DILI_Concern result in data set [2] was “Most-Dili-Concern”.
As to `CS(=O)(=O)O.C[C@H](N)C(=O)N[C@@H](C)C(=O)N[C@H]1[C@@H]2CN(c3nc4c(cc3F)c(=O)c(C(=O)O)cn4-c3ccc(F)cc3F)C[C@@H]21` [ALATROFLOXACIN MESYLATE], in data set [1], the DILI_severity_class is on record as 8. The DILI_Concern entry in data set [2] is reported as “Most-Dili-Concern”.
Regarding `CCCSc1ccc2nc(NC(=O)OC)[nH]c2c1` [ALBENDAZOLE], in data set [1], the DILI_severity_class is on record as 7. The DILI_Concern entry in data set [2] is given as “Most-Dili-Concern”.
As to `CC(C)(C)NCC(O)c1ccc(O)c(CO)c1` (stereo not drawn) [ALBUTEROL], the DILI_severity_class in data set [1] is 0. Also, the DILI_Concern entry in data set [2] is on record as “No-Dili-Concern”.
For `C=CCOc1ccc(CC(=O)O)cc1Cl` [ALCLOFENAC] the same measures were 8 and “Most-Dili-Concern”.
The corresponding values for `NCCCC(O)(P(=O)(O)O)P(=O)(O)O` [ALENDRONIC ACID] are 0 and “Less-Dili-Concern”.
The corresponding values for `COc1cc2nc(N(C)CCCNC(=O)C3CCCO3)nc(N)c2cc1OC` (stereo not drawn) [ALFUZOSIN] are 5 and “Less-Dili-Concern”.
Regarding `Oc1ncnc2[nH]ncc12` [ALLOPURINOL], in data set [1], the DILI_severity_class was found to be 8. Moreover, the DILI_Concern entry in data set [2] is “Most-Dili-Concern”.
In the case of `CN(C)CCc1c[nH]c2ccc(CS(=O)(=O)N3CCCC3)cc12` [ALMOTRIPTAN], the DILI_severity_class in data set [1] is recorded as 0. In data set [2], the DILI_Concern result is reported as “No-Dili-Concern”.
For `Cc1[nH]cnc1CN1CCc2c(c3ccccc3n2C)C1=O` [ALOSETRON], the DILI_severity_class in data set [1] is listed as 4. Also, the DILI_Concern result in data set [2] is given as “Less-Dili-Concern”.
The corresponding values for `CCCN(CCC)C(=O)Cc1c(-c2ccc(Cl)cc2)nc2ccc(Cl)cn12` [ALPIDEM] are 8 and “Most-Dili-Concern”.
For `Cc1nnc2n1-c1ccc(Cl)cc1C(c1ccccc1)=NC2` [ALPRAZOLAM] the same measures were 7 and “Less-Dili-Concern”.
As to `CN(C)c1nc(N(C)C)nc(N(C)C)n1` [ALTRETAMINE], the DILI_severity_class in data set [1] is 2. Further, the DILI_Concern result in data set [2] was “Ambiguous-Dili-Concern”.

These data come from ChEMBL document CHEMBL4028802, “DILIrank: the largest reference drug list ranked by the risk for developing drug-induced liver injury in humans” (Drug Discov Today, 2016).
